Data published in publication PMC10166890, “Screening for DAX1/EWS‐FLI1 functional inhibitors identified dihydroorotate dehydrogenase as a therapeutic target for Ewing's sarcoma” (Cancer Medicine, 2023).
Entries after “also recorded” stand apart in the source; their conditions may differ.

Key:
TC‐71 cells = test: Cell viability assay (XTT), TC‐71 cells; type: cell-based, human; settings: 72 h
Experimental: AsPC‐1, A‐673, and TC‐71 cells were seeded in 96‐well plates (800 cells/well for AsPC‐1, 2000 cells/well for A‐673, and 400 cells/well for TC‐71) and cultured overnight. Vehicle (DMSO) or a test compound diluted with the medium was then added to the wells (final DMSO concentration was 0.3%), and 72 h later, 2,3‐bis[2‐methoxy‐4‐nitro‐5‐sulfophenynl]‐2H‐tetrazolium‐5‐carboxanilide inner salt (XTT) reagent (Roche Diagnostics, Mannheim, Germany) was added to the medium. After 3‐h incubation at 37°C, the formation of the formazan dye was determined by measuring absorbance at 490 and 650 nm using a SpectraMax 340PC system (Molecular Devices, Sunnyvale, CA, USA).

DHODH = target: T1, DHODH (Mus musculus, UniProt O35435); test: DHODH inhibition with mouse liver mitochondria; type: biochemical
T1 construct: IC50 value for the mouse liver mitochondrial fraction; from tissue; host or cells: mouse liver mitochondria

[1] = tested on: A‐673 cell‐derived tumors; test: A‐673 xenograft in SCID mice; type: in vivo, mouse
Experimental: (§1) All animal studies were performed in accordance with Standards for Proper Conduct sof Animal Experiments at Kyowa Kirin Co., Ltd., under the approval of the company's Institutional Animal Care and Use Committee. Male C.B17/Icr‐scid/scidJcl (SCID) mice (5 weeks old) were purchased from CREA Japan (Tokyo, Japan). K‐733 was suspended in 0.5% (w/v) methylcellulose 400 (MC400; FUJIFILM Wako Pure Chemical) and orally administered to mice once daily. Ewing's cells were suspended in Dulbecco's phosphate‐buffered saline (DPBS; Thermo Fisher Scientific, Waltham, MA, USA) and injected subcutaneously into the ventral side of mice at 5 × 10^6 cells/0.1 mL/mouse for A‐673 and TC‐71 and 1 × 10^7 cells/0.1 mL/mouse for CADO‐ES1 and SK‐ES‐1. In experiments using TC‐71 cells, 0.3 mg of anti‐asialo GM1 antibody (FUJIFILM Wako Pure Chemical) was injected intraperitoneally 1 day before TC‐71 injection. The tumor size and body weight were measured every 3 or 4 days. The tumor volume was calculated using the following equation: Tumor volumemm^3=DL×DS×DS×1/2, where DL and DS represent the long diameter and short diameter, respectively. The pharmacokinetic analysis of K‐733 is described in Materials and Methods S2.

TC‐71‐derived tumors = test: TC‐71 xenograft in SCID mice; type: in vivo, mouse; settings: 10, 30, or 100 mg/kg orally once daily; less sensitive than others
Experimental: as §1

SK‐ES‐1 = SK‐ES‐1 xenograft in SCID mice; type: in vivo, mouse; settings: 10, 30, or 100 mg/kg orally once daily
Experimental: as §1

CADO‐ES1 = CADO‐ES1 xenograft in SCID mice; type: in vivo, mouse; settings: 10, 30, or 100 mg/kg orally once daily
Experimental: as §1

[2] = Plasma concentration‐time profile after single oral administration; type: in vivo, mouse; settings: BALB/c mice
Experimental: First, we evaluated the plasma concentration‐time profile of K‐733 after single oral administration at dose ranges from 1 to 100 mg/kg in BALB/c mice (donors of SCID mice) for dose selection (Figure 8A). […] Therefore, we selected dose ranges from 10 to 100 mg/kg for in vivo studies.
Male BALB/cAnNCrlCrlj mice (6 weeks old) were purchased from Jackson Laboratories Japan (Yokohama, Japan). K-733, suspended in 0.5% (w/v) MC400 was orally administered at 1, 3, 10, and 100 mg/kg (n=2), and blood samples were collected from the tail vein at 0.5, 1, 2, 4, 7 and 24 h after administration. Mice were euthanized with carbon dioxide inhalation after the final blood sampling. Plasma was separated and stored frozen until use. The plasma concentration of K-733 was determined by liquid chromatography with tandem mass spectrometry (LC-MS). Plasma samples were pre-treated for protein precipitation, and the supernatant was subjected to liquid LC-MS. The analyte was separated on a C18 reverse-phase column (CAPCELL PAK C18 MG 3 μm, 3 mm I.D. × 35 mm; Osaka Soda). LC-MS detection was performed by electrospray ionization in a positive ion mode. The detected mass-to-charge ratio of K-733 was 482.95/92.75 (Q1/Q3). The lower limit of quantification (LLOQ) was 10 nM.

[3] = tested on: EWS‐FLI1 target gene expression; test: EWS‐FLI1 target gene expression in A‐673 tumors after 14‐day treatment; type: in vivo, mouse; settings: after 14‐day oral treatment
Experimental: Total RNA was extracted using the RNeasy Plus Mini kit (Qiagen, Valencia, CA, USA) according to the manufacturer's protocol. cDNA was synthesized from 1 μg of total RNA using a SuperScript VILO cDNA synthesis kit (Thermo Fisher Scientific). Real‐time PCR was carried out using TaqMan Fast Universal PCR Master Mix (Thermo Fisher Scientific).
as §1
FIGURE 8 K‐733 exerts an anti‐tumor effect in mice bearing Ewing's sarcoma. (A) Plasma concentration‐time profiles of K‐733 in mice after a single oral administration of K‐733. Each plot represents the mean of duplicate measurements. (B) Antitumor effect of K‐733 on A‐673 cells. Indicated doses of K‐733 were orally administered once daily for 14 days. Each plot represents the mean of n = 5 and SE. C, Influence of K‐733 on EWS‐FLI1‐related genes. Tumors were sampled after 14 days oral administration of K‐733. Each plot represents the mean of n = 5 and SE. […]

T1 sequence (O35435 whole entry): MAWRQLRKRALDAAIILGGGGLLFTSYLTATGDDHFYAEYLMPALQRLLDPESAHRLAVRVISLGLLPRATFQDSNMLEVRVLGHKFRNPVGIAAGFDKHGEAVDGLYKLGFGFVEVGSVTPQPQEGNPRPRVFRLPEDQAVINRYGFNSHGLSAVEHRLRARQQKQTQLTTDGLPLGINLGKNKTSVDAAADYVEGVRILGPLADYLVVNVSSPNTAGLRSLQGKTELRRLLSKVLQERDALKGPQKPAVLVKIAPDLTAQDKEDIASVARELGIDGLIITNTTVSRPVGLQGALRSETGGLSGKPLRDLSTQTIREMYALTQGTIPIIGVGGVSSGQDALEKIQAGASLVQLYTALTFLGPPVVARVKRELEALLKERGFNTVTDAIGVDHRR

Cc1nc(-c2ccc(C3c4[nH]c5ccc(Cl)cc5c4CCN3C(=O)Oc3ccccc3)cc2)no1 (stereo not shown) [K-733, phenyl 6‐chloro‐1‐(4‐(5‐methyl‐1,2,4‐oxadiazol‐3‐yl)phenyl)‐1,3,4,9‐tetrahydro‐2H‐pyrido[3,4‐b]indole‐2‐carboxylate]
Cell viability of TC‐71 cells (TC‐71 cells): decreased the viability
IC50 (DHODH): 120 nM
Treatment per control ratio (T/C), greatest change ([1]; 100 mg/kg orally once daily, A‐673 tumors): 0.38
Tumor volume, A‐673 xenograft ([1]; 10, 30, or 100 mg/kg orally once daily up to 14 days): reduced; also recorded: inhibited tumor growth
Body weight ([1]; A‐673‐bearing mice, up to 100 mg/kg orally once daily): without a body weight loss; also recorded: without affecting body weight gain
Tumor growth, TC‐71 xenograft (TC‐71‐derived tumors): reduced dose‐dependently
Tumor growth, SK‐ES‐1 xenograft (SK‐ES‐1): reduced dose‐dependently
Tumor growth, CADO‐ES1 xenograft (CADO‐ES1): reduced dose‐dependently
Plasma concentration, dose dependence ([2]; single oral 1 to 100 mg/kg): increased dose‐dependently
Plasma concentration relative to IC50 (DAX1 reporter and DHODH inhibition) ([2]; single oral ≥10 mg/kg): higher than the IC50 value
DAX1 mRNA levels in tumors [3]: no marked effect
mRNA levels of IGFBP3 and DKK1 in tumors [3]: increased
mRNA levels of NKX2‐2 in tumors [3]: decreased
